# Legend:
# [1] = biological target: T1, peripheral-type benzodiazepine receptor (PBR) in Y-1 cells (Mus musculus, UniProt P50637); assay: [3H]PK 11195 binding in Y-1 adrenocortical cells; conditions: 37° C., FIG. 2a
# T1 construct: Y-1 cell cultures were scraped from the flasks; host or cells: Y-1 mouse adrenal tumor cells
# Procedure: (§1) Cells--The Y-1 adrenal mouse tumor cell line used in these studies was obtained from the American Type Culture Collection (ATCC #CCL 79). Stock cultures were grown in modified Waymouth's MB752/l medium containing 20 mM HEPES, 1.2 g/l NaHCO3, 15% horse serum and 2.5% fetal calf serum, pH 7.4. Before use the cells were washed three times at 30 min intervals, with serum-free media in order to eliminate serum components that may interfere with the assays and were incubated for the indicated time periods in the presence of the drugs under investigation. Bovine fasciculata-reticularis and adrenocortical cells from adult (300 g) Sprague-Dawley rats were prepared as previously described by Yanagibashi et al, (1989) Endocrinology 124; 2838-2391.
# Radioligand binding assays--Y-1 cell cultures were scraped from the flasks ([…]) in 5 ml of Kreb's buffer, dispersed by repetitive pipetting, and centrifuged at 1,200 × g for 5 min. The cell pellets were resuspended in Kreb's buffer and larger cellular aggregates were allowed to settle for 5 min. The finely dispersed cell suspensions were taken for further experimentation.
# Binding assays were performed in a total volume of 250-400 ul of Kreb's buffer containing [^3 H]PK 11195 (0.07-20 nM) with 5 ug of cellular protein. Incubations were conducted at 37° C. for 30 min and bound radioligand was measured by filtration through Whatman GF/C filters followed by four rapid 5 ml washes with 25 mM Tris-HCl (pH 7.4) containing 1 uM PK 11195. Filters were subjected to liquid scintillation counting. Nonspecific binding was measured in the presence (of 10 uM nonradioactive PK 11195.
# rat adrenocortical cells = assay: Corticosterone secretion in dissociated rat adrenocortical cells; format: cell-based; conditions: rat adrenocortical cell suspensions, FIG. 5a
# Procedure: as §1
# Measurement of steroid production--These experiments were performed with the Y-1 cells plated in 12--22 mm wells and incubated for the times shown at a final volume of 1 ml of serum-free media at 37° C. […] Steroid production was determined by measuring 20-γ-hydroxyprogesterone, the main steroid product of these cells, using a radioimmunoassay with an antibody donated by Dr. G. Nieswender (Univ. of Colorado, Fort Collins), under the process described in Kowal J. (1970), Recent Progress in Hormone Research 26, 623-687 and Schimmer B.P. (1981) in Functionally Differentiated Cell Lines, ed. […]
# [2] = test system: purified rat Leydig cells; assay: Testosterone production by purified rat Leydig cells, basal and hCG stimulated
# T1 sequence (P50637 whole entry): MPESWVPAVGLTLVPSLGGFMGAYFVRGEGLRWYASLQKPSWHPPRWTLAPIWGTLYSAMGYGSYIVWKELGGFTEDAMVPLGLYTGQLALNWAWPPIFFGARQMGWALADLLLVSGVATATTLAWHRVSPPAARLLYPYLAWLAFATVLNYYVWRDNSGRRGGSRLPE
smiles,measurement,setting,value
"CN1C(=O)CN=C(c2ccc(Cl)cc2)c2cc(Cl)ccc21 [Ro5-4864, 4'-chlorodiazepam]",rank order of compound displacement potency against [3H]PK 11195 binding,[1],"alpidem>PK 11195>PK 14067>4'-chlorodiazepam>zolpidem>PK 14608, diazepam>flunitrazepam>clonazepam>flumazenil"
same,"stimulation of steroid production (corticosterone), in words",rat adrenocortical cells,much more potent at stimulating steroidogenesis in rat adrenocortical cells when compared with bovine preparations
same,"Testosterone, No Additions","[2]; compound 10^-5 M, basal, 4 hours at 32° C., mean ± S.D. n = 3, control 1.30 ± 0.20",2.40 ± 0.30 ng/10^5 cel s/4 hours
same,"Testosterone, hCG (50 ng/ml)","[2]; compound 10^-5 M, hCG 50 ng/ml, 4 hours at 32° C., mean ± S.D. n = 3, control 15.13 ± 2.05",14.10 ± 2.26 ng/10^5 cel s/4 hours
same,stimulation of testosterone production,"[2]; purified rat Leydig cells, basal, 240 min",about 2 fold
